One data set concerns the target T1, γD-crystallin (Homo sapiens, UniProt P07320).
T1 construct: 6xHis (N); made in house; host or cells: M15pRep E. coli (pQe1 plasmid from King Labs, MIT)
T1 sequence (P07320 1-174): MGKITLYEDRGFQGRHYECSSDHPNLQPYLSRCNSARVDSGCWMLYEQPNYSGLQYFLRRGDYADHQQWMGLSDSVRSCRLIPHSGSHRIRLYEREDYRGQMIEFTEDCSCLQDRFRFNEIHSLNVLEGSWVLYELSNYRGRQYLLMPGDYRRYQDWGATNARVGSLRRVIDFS
Kind of data set: Dynamic light scattering (DLS) of γD-crystallin, hydrodynamic radius of monomer and aggregate. The settings on record: for Rhf / Rhs: γD; for Rhf: fast mode; for Rh: γD modified with the agent. In kind it is biochemical. The method, then: (§1) The scattering wave vector is defined as q=4πn sin (θ/2)/λ, where θ is the scattering angle, and λ=514.5, the wavelength of the argon laser in vacuum, and n is 1.33, the refractive index of water. The temperature of the sample was held at constant temperature of 4 to 37±0.1° C. by a circulating water bath. The correlation function was analyzed using CONTIN analysis [NT] times for the correlation functions at measured angles. […] The delay times (τ) were converted to Γ and graphed versus q^2. The slope of the fitted line is the diffusion coefficient (D). […] All solutions were filtered with 0.22 μm hydrophobic PVDF membranes (Fisher Scientific) into 10 mm diameter borosilicate glass tubes and sealed. Solutions were allowed to equilibrate for thirty minutes prior to measuring light scattering. […] The pH and salt concentration were adjusted via overnight dialysis at 4° C. and their final concentration adjusted to 1.0 g/L. […] The scattering wave vector is defined as q=4πn sin (θ/2)/λ, where θ is the scattering angle, and λ=514.5, the wavelength of the argon laser in vacuum, and n is 1.33, the refractive index of water. The temperature of the sample was held at constant temperature of 4 to 37±0.1° C. by a circulating water bath. The correlation function was analyzed using CONTIN analysis [NT] times for the correlation functions at measured angles. […] The delay times (τ) were converted to Γ and graphed versus q^2. The slope of the fitted line is the diffusion coefficient (D). […] All solutions were filtered with 0.22 μm hydrophobic PVDF membranes (Fisher Scientific) into 10 mm diameter borosilicate glass tubes and sealed. Solutions were allowed to equilibrate for thirty minutes prior to measuring light scattering.

Data set [1] has as its system γ-crystallin. Put plainly: DLS, aggregation of γ-crystallin (stated for γD and γS together). It counts as biochemical. The settings on record: for aggregation of γ-crystallin modified with the agent (DLS): dilute solution, 22° and 37° C.; for effect on the large γ-crystallin aggregate: α-crystallin mixed with γD- or γS-crystallin, molar ratio 3:1, one hour at 4° C. Here is the method: (§2) Scattering intensity was measured at angles between 30° and 90° at 5° intervals, corresponding to a scattering wave vector (q) range between 8.41×10^6 and 2.30×10^7 m^−1. The scattering wave vector is defined as q=4πn sin (θ/2)/λ, where θ is the scattering angle, and λ=514.5, the wavelength of the argon laser in vacuum, and n is 1.33, the refractive index of water. The temperature of the sample was held at constant temperature of 4 to 37±0.1° C. by a circulating water bath.
(§3) The correlation function was analyzed using CONTIN analysis to calculate lag times for the correlation functions at measured angles. The peaks represent the diffusive mode of the proteins. The delay times (τ) were converted to Γ and graphed versus q^2. The slope of the fitted line is the diffusion coefficient (D). The lines are fitted such that the intercept is zero because a non-zero value of q=0 is unphysical. The Γ versus q^2 plots were linear with r^2 values of 0.95 or greater.
(§4) All solutions were filtered with 0.22 μm hydrophobic PVDF membranes (Fisher Scientific) into 10 mm diameter borosilicate glass tubes and sealed. Solutions were allowed to equilibrate for thirty minutes prior to measuring light scattering.
γ-crystallins were subjected to a variety of experimental conditions, including a range of pHs (5, 6, 7, 8, 9, 10, 11), concentrations of KCl (100 mM, 150 mM, 300 mM, 500 mM, 1000 mM) and temperature (4.5° C., 22° C., 37° C.). The pH and salt concentration were adjusted via overnight dialysis at 4° C. and their final concentration adjusted to 1.0 g/L.
It had been hypothesized that disulfide bonds might mediate the observed γ-crystallin aggregates. The DLS of the γ-crystallin proteins was also measured in 5 mM DTT, and in the presence of 1.0 g/L α-crystallin. […] Thus, this hypothesis was incorrect.
Further, the synthesized α-crystallin proteins were mixed with γ-crystallin proteins to determine if the chaperoning ability of α-crystallin disrupts the γ-crystallin aggregates. The α-A and α-B crystallins were each individually mixed with γD- or γS-crystallin in a molar ratio of 3:1, respectively, mimicking the ratio found in the human eye lens. All solutions were allowed to equilibrate for an hour at 4° C.

The next data set has as its target T2, γS-crystallin (Homo sapiens, UniProt P22914).
T2 construct: 6xHis (N); made in house; host or cells: M15pRep E. coli (pQe1 plasmid from King Labs, MIT)
T2 sequence (P22914 1-178): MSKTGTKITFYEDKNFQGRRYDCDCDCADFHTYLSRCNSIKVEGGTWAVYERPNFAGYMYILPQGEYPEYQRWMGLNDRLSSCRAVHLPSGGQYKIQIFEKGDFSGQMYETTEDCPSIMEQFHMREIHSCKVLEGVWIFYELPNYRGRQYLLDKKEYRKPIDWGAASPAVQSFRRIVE
Kind of data set: Dynamic light scattering (DLS) of γS-crystallin, hydrodynamic radius of monomer and aggregate. As to conditions: for Rhf / Rhs: γS; for Rhf: fast mode; for Rh: γS modified with the agent. It counts as biochemical. Here is the method:
as §1

Data set [2] deals with γ-crystallin. Put plainly: Circular dichroism of modified γ-crystallin (secondary structure). As to conditions: 0.5 mg/mL, 22° C., versus native protein. In kind it is biochemical. Here is the method: Crystallin samples were dialyzed overnight into 10 mM Na2HPO4/NaH2PO4 buffer pH 6.8 and measured at a concentration of 0.5 mg/mL. CD spectra were measured on a Jasco J715 spectropolarimeter at 22° C. using a quartz cell of 1 mm path length.

Data set [3] can be described thus: DLS of individual α-crystallin solutions (size in dilute solution). It counts as physicochemical. As to conditions: individual protein solution. The method, then:
as §2, §3, §4
Individual solutions of α-A, α-B, γD- and γ-S crystallin proteins were investigated to understand the size scale and how the proteins behave in dilute solution. (Table 1) Temperature had little effect on protein size in solution as measured by DLS.

Where [4] appears, read: slow mode (aggregate), 100 mM NaCl.
The mark [5] stands for this setting: slow mode (aggregate), 150 mM NaCl.
Setting [6] is: slow mode (aggregate), 300 mM NaCl.
The mark [7] stands for this setting: fast mode (monomer, first Rh column), 22° C.
The mark [8] stands for this setting: α-crystallin additive, molar ratio 3:1, one hour at 4° C.
[9] abbreviates: slow mode, α-crystallin additive, molar ratio 3:1, one hour at 4° C.

Eight compounds from patent publication US10413529B2, “Methods of inhibiting cataracts and presbyopia” (UNIVERSITY OF MASSACHUSETTS, priority 2013, dated 2019) can be followed below.

As for `O[C@@H](CS)[C@@H](O)CS` [DTT, reference compound], the Rhf is 2.6 nm on γD-crystallin (additive 5 mM DTT) and 3 nm on γS-crystallin (additive 5 mM DTT). Also, the Rhs stood at 108 nm on γD-crystallin (slow mode, additive 5 mM DTT) and 102 nm on γS-crystallin (slow mode, additive 5 mM DTT). Moreover, the “effect on the size of the γ-crystallin aggregates” value with γ-crystallin [1] (5 mM DTT) is reported as “had no effect on the size of the γ-crystallin aggregates”.
Take `[Cl-].[K+]` [KCl]: the aggregate formation entry in the data set with γ-crystallin [1] (KCl concentrations 400 to 1000 mM) is recorded as “aggregate formation was effectively inhibited”. Moreover, in the data set on γ-crystallin [1] (KCl concentrations of less than 300 nM (so in the source)), the “reduction in the size of γ-crystallin aggregates” value is listed as “did not provide a reduction in the size of γ-crystallin aggregates”. Moreover, the “reduction of γ-crystallin aggregates” value in the data set on γ-crystallin [1] (salt concentrations over 300 mm KCl (so in the source)) was “did reduce γ-crystallin aggregates to individual protein particles”.
Turning to `[Cl-].[Na+]` [NaCl], the Rhf was found to be 2.8 nm at γD-crystallin (100 mM NaCl); 2.8 nm on γD-crystallin (150 mM NaCl); 2.6 nm at γD-crystallin (300 mM NaCl); 2.7 nm on γD-crystallin (400 mM NaCl); 2.8 nm on γD-crystallin (500 mM NaCl); 2.5 nm at γD-crystallin (1000 mM NaCl). Also, the Rhf on γS-crystallin (100 mM NaCl) came to 2.7 nm; at γS-crystallin (150 mM NaCl), 2.7 nm; at γS-crystallin (300 mM NaCl) it was 2.9 nm; at γS-crystallin (400 mM NaCl), 2.6 nm; at γS-crystallin (500 mM NaCl) it was 2.5 nm; at γS-crystallin (1000 mM NaCl), 2.6 nm. Moreover, the Rhs on γD-crystallin (setting [4]) was 108 nm; on γD-crystallin (setting [5]), 104 nm; at γD-crystallin (setting [6]), 91 nm; on γS-crystallin (setting [4]), 104 nm; at γS-crystallin (setting [5]), 102 nm; on γS-crystallin (setting [6]), 100 nm.
With `CC(=O)O.O=C1CC(S(=O)(=O)O)C(=O)N1O` (stereo not shown) [SA, sulfo-N-hydroxysuccinimide acetate], the Rh is 2.6 nm on γD-crystallin (fast mode (monomer), 37° C.); 2.5 nm on γD-crystallin (setting [7]); 82.5 nm at γD-crystallin (slow mode (aggregate), 22° C.); 85 nm on γD-crystallin (slow mode (aggregate), 37° C.); 2.5 nm on γS-crystallin (fast mode (monomer), 37° C.); 2.5 nm at γS-crystallin (setting [7]). Also, the Rh was found to be 92.5 nm at γS-crystallin (slow mode (aggregate), 22° C.) and 90 nm on γS-crystallin (slow mode (aggregate), 37° C.). Further, the “aggregation of γ-crystallin modified with the agent (DLS)” value (shortened to “aggregation of γ-crystallin modified”) in the data set on γ-crystallin [1] is “did not prevent aggregation”. Moreover, the “secondary structure of modified γ-crystallin (CD spectra)” value (“secondary structure” below) with γ-crystallin [2] is on record as “smaller well around 220 nm as compared to the native”.
For the compound Biotin, the Rh on γD-crystallin (fast mode (monomer), 37° C.) worked out at 2.7 nm; on γD-crystallin (setting [7]) it was 2.8 nm; on γD-crystallin (slow mode (aggregate), 22° C.), 150 nm; on γD-crystallin (slow mode (aggregate), 37° C.) it was 170 nm; on γS-crystallin (fast mode (monomer), 37° C.), 2.8 nm; at γS-crystallin (setting [7]) it was 2.6 nm. The Rh was determined as 180 nm at γS-crystallin (slow mode (aggregate), 22° C.) and 210 nm at γS-crystallin (slow mode (aggregate), 37° C.). In the data set on γ-crystallin [1], the “aggregation of γ-crystallin modified” value is listed as “resulted in aggregation”. In addition, in the data set on γ-crystallin [2], the “secondary structure” value is on record as “showed a sizeable shift upwards as compared with the native structure of the protein”.
PEG4: the Rh amounted to 2.9 nm at γD-crystallin (fast mode (monomer), 37° C.); 2.8 nm on γD-crystallin (setting [7]); 2.9 nm at γS-crystallin (fast mode (monomer), 37° C.); 2.9 nm on γS-crystallin (setting [7]). Further, in the data set with γ-crystallin [1], the “aggregation of γ-crystallin modified” value is recorded as “showed no aggregation”. The “secondary structure” value with γ-crystallin [2] is listed as “did not significantly affect the secondary structures”.
For “αA: αA-crystallin, heat shock protein and molecular chaperone, 19.9 kDa”, the “effect on the large γ-crystallin aggregate” value with γ-crystallin [1] was “the large γ-crystallin aggregate of several hundred nanometers disappeared”. The Rh in data set [3] (4°) amounted to 12 nm; in data set [3] (22°) it was 12 nm; in data set [3] (37°) it was 13 nm.
With “αB: αB-crystallin, heat shock protein and molecular chaperone, 20.16 kDa”, the Rhf with γD-crystallin (setting [8]) was found to be 3.2 nm; in the data set with γS-crystallin (setting [8]), 3 nm. The Rhs is given as 17 nm with γD-crystallin (setting [9]) and 19 nm with γS-crystallin (setting [9]). Further, in the data set on γ-crystallin [1], the “effect on the large γ-crystallin aggregate” value is recorded as “the large γ-crystallin aggregate of several hundred nanometers disappeared”. Besides, the values for the Rh in data set [3] (4°), in data set [3] (22°) and in data set [3] (37°) were 12 nm, 13 nm and 13 nm, respectively.
